Results as given in patent publication US20240158348A1, “HERBICIDAL CYCLIC AMIDES N-SUBSTITUTED WITH A HALOALKYLSULFONYLANILIDE GROUP” (FMC Corporation, priority 2021, published 2024).

Tests used:
Type in all cases: in vivo
[1] = system: goosegrass (Eleusine indica); test: Test C postemergence, goosegrass; details: for Goosegrass plant response rating: visual injury, 0 to 100 scale (0 no effect, 100 complete control)
Outline: (§1)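 Greenhouse pot test. Compounds in a non-phytotoxic solvent with surfactant were applied to a loam–sand soil mix either preemergence as a directed spray or postemergence to plants at the one- to two-leaf stage; 0–100 visual ratings followed after 10 or 12 days.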

soybean (Glycine max) = test: Test C preemergence, soybean; details: 0 is no effect, 100 is complete control
Outline: as §1

[2] = system: blackgrass (Alopecurus myosuroides); test: Test C postemergence, blackgrass; details: 125 g ai/ha Postemergence; 0 is no effect, 100 is complete control

Compound	Goosegrass plant response rating ([1]; 31 g ai/ha Postemergence)	Plant response rating (0 to 100 scale), Goosegrass ([1]; 125 g ai/ha Postemergence, 0 is no effect, 100 is complete control)	Plant response rating (0 to 100 scale), Soybean (soybean (Glycine max); 31 g ai/ha Preemergence)	Plant response rating (0 to 100 scale), Soybean (soybean (Glycine max); 125 g ai/ha Preemergence)	Plant response rating (0 to 100 scale), Blackgrass [2]	Goosegrass plant response rating ([1]; 125 g ai/ha Postemergence)
Cc1c(N2CCCC(OC3CCC3)C2=O)cc(N(COC(=O)C(C)(C)C)S(=O)(=O)C(F)(F)F)c(C)c1F (stereo not drawn) [Compound 39]	0	30	0	60	10	–
Cc1cc(C)c(N2CCC(OCC3CC3(F)F)C2=O)cc1NS(=O)(=O)C(F)(F)F (stereo not drawn) [Compound 41]	90	–	60	100	–	90
Cc1cc(C)c(N2CCC(OCC3CCC3)C2=O)cc1NS(=O)(=O)C(F)(F)F (stereo not drawn) [Compound 43]	20	–	10	90	–	90
Cc1c(NS(=O)(=O)C(F)(F)F)cc(N2CCC(OC3CCC3)C2=O)c(C)c1C (stereo not drawn) [Compound 45]	70	–	50	100	–	90
Cc1c(NS(=O)(=O)C(F)(F)F)cc(N2CCC(OC3CC3)C2=O)c(C)c1C (stereo not drawn) [Compound 47]	50	–	50	90	–	90
Cc1c(N2CCC(OC3CCC3)C2=O)cc(N(C(=O)OCC(C)C)S(=O)(=O)C(F)(F)F)c(C)c1C (stereo not drawn) [Compound 48]	0	–	30	70	–	40
Cc1c(N2CCC(OC3CC3)C2=O)cc(N(COC(=O)C(C)(C)C)S(=O)(=O)C(F)(F)F)c(C)c1C (stereo not drawn) [Compound 49]	20	–	0	40	–	80
Cc1c(N2CCC(OC3CC3)C2=O)cc(N(C(=O)OCC(C)C)S(=O)(=O)C(F)(F)F)c(C)c1C (stereo not drawn) [Compound 50]	20	–	30	60	–	80
Cc1c(N2CCC(OC3CCC3)C2=O)cc(N(COC(=O)C(C)(C)C)S(=O)(=O)C(F)(F)F)c(C)c1C (stereo not drawn) [Compound 51]	0	–	0	30	–	20
Cc1cc(C)c(N2CCC(OCC3CCC3(F)F)C2=O)cc1NS(=O)(=O)C(F)(F)F (stereo not drawn) [Compound 52]	0	–	30	50	–	70
Cc1cc(C)c(N(COC(=O)C(C)(C)C)S(=O)(=O)C(F)(F)F)cc1N1CCC(OCC2CC2(F)F)C1=O (stereo not drawn) [Compound 54]	60	–	0	30	–	90
Cc1cc(C)c(N(COC(=O)C(C)(C)C)S(=O)(=O)C(F)(F)F)cc1N1CCC(OCC2CC(F)(F)C2)C1=O (stereo not drawn) [Compound 55]	40	–	0	0	–	90
C#CC(C)OC1CCN(c2cc(NS(=O)(=O)C(F)(F)F)c(C)cc2C)C1=O (stereo not drawn) [Compound 58]	100	–	100	100	–	100
C=C(C)COC1CCN(c2cc(NS(=O)(=O)C(F)(F)F)c(C)cc2C)C1=O (stereo not drawn) [Compound 59]	70	–	60	90	–	90
CC#CCOC1CCN(c2cc(NS(=O)(=O)C(F)(F)F)c(C)cc2C)C1=O (stereo not drawn) [Compound 60]	80	–	50	90	–	90
Cc1cc(C)c(N2CCC(OCc3ccccc3)C2=O)cc1NS(=O)(=O)C(F)(F)F (stereo not drawn) [Compound 61]	40	–	40	90	–	90
Cc1c(NS(=O)(=O)C(F)(F)F)cc(N2CCC(OCC3CC3)C2=O)c(C)c1F (stereo not drawn) [Compound 63]	0	–	60	100	–	90
